Source: patent publication US20230365582A1, “NOVEL COMPOUNDS HAVING INHIBITORY ACTIVITY ON PROSTAGLANDIN E2 RECEPTOR AND USES THEREOF” (KANAPH THERAPEUTICS INC., priority 2020, published 2023)

How the values were obtained:
hEP2 = target: T1, hEP2 (Homo sapiens, UniProt P43116); assay: hEP2 cAMP assay; type: cell-based; conditions: HEK293 cells overexpressing hEP2; PGE2 agonist 400 pM; graded per Table 21; read-out: IC50 (nM) EP2 cAMP
T1 construct: expressed in transfected cells; host or cells: HEK293
T1 sequence (P43116 whole entry): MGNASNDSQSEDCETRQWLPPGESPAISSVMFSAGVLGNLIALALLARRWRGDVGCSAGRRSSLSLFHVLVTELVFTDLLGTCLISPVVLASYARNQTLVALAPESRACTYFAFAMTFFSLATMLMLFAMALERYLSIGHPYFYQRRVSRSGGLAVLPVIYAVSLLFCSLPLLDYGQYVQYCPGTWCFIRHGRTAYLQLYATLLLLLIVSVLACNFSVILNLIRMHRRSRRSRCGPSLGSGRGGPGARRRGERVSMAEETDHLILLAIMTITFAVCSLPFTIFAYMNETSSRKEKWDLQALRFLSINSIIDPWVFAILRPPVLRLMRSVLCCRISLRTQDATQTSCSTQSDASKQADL
Method: (§1) HEK293 cells overexpressing hEP2 were cultured in growth medium (GM: MEM (Gibco™, 11095080)/10% HI FBS (Gibco™, 10082147)/1% penicillin/streptomycin). Before the experiment, the growth medium was removed, and starvation medium (HBSS (Gibco™, 14025076)/10% GM) was added. Thereafter, the cells were incubated for 4 hours. The HEK293 cells harboring hEP2 were detached from the culture dish with a non-enzymatic cell dissociation buffer (Gibco™, 15040066). The cells were resuspended in assay buffer (AB: HBSS, 0.1% BSA stabilizer, 0.5 mM IBMX, 5 mM HEPES).
(§2) 1,000 cells in 5 μL of AB were seeded per well in a 384 well plate (Corning™, 3570), and stock solutions of test compounds were prepared at a concentration of 1 mM in DMSO and serially diluted in DMSO to the concentration required for the inhibition dose response curve (test concentration range of 10 μM-0.001 nM). PGE2 (Sigma, P0409, stock solution: 1 μM) was used as an agonist at a final concentration of 400 pM corresponding to EC50-80. 2.5 μL of the diluted compound and 2.5 μL of PGE2 (400 pM final concentration) were transferred to the assay plate, and then the plate was incubated at room temperature for 12 minutes.
(§3) 5 μL of each donor (Eu-cAMP tracer) and acceptor (ULight-anti-cAMP) was added, and the plate was incubated in the dark for 1 hour at room temperature, and then a Varioskan LUX multimode microplate reader was used to obtain the results (excitation: 334 nm, emission: 615 and 665 nm). The resulting FRET fluorescence value (665 nm/615 nm*10000) was converted and then calculated as a percentage of cAMP relative to the DMSO control value. IC50 values and curves were generated with GraphPad Prism software using log (inhibitor) versus response-variable slopes (4 parameters), and the median of multiple experiments was taken as the experiment result.

hEP4 = target: T2, hEP4 (Homo sapiens, UniProt P35408); assay: hEP4 cAMP assay; type: cell-based; conditions: HEK293 cells overexpressing hEP4; PGE2 agonist 20 nM; graded per Table 21; read-out: IC50 (nM) EP4 cAMP
T2 construct: expressed in transfected cells; host or cells: HEK293
T2 sequence (P35408 whole entry): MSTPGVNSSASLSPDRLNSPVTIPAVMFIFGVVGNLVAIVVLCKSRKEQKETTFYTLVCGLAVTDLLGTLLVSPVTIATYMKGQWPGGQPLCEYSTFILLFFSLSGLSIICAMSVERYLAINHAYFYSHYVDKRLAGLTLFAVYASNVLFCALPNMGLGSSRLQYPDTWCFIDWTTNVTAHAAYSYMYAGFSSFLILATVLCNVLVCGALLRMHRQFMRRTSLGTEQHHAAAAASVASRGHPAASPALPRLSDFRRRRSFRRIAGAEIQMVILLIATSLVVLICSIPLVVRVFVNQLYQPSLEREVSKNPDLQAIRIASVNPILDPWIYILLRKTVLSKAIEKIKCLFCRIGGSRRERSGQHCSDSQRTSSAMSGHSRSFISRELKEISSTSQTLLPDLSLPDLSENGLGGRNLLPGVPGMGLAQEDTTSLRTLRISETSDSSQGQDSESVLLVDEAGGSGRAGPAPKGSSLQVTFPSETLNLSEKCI
Method: as §1, with “overexpressing hEP4” for “overexpressing hEP2”, “(HBSS (Gibco™” for “(HBSS (Gibco™,”, “hours.” for “hours. The”, “harboring hEP4” for “harboring hEP2”
as §2, with “plate (Corning®,” for “plate (Corning™,”, “solution: 100” for “solution: 1”, “of 20 nM” for “of 400 pM”, “PGE2 (20 nM” for “PGE2 (400 pM”, “for 18.5” for “for 12”
as §3, with “compared” for “relative”, “slope” for “slopes”

SMILES	IC50 (hEP2) [nM]	IC50 (hEP4) [nM]
COc1cccc(-c2ccc(Cn3ccc4scc(C(=O)NC5CC6(C5)CC(C(=O)O)C6)c43)cc2)c1 (stereo not drawn) [Example 85, 6-(4-((3′-methoxy-[1,1′-biphenyl]-4-yl)methyl)-4H-thieno[3,2-b]pyrrole-3-carboxamido)spiro[3.3]heptane-2-carboxylic acid]	< 500	< 500
O=C(N[C@H]1C[C@@H](C(=O)O)C1)c1csc2ccn(Cc3ccc(-c4ccccc4)cc3)c12 [Example 84, (1S,3S)-3-(4-([1,1′-biphenyl]-4-ylmethyl)-4H-thieno[3,2-b]pyrrole-3-carboxamido)cyclobutane-1-carboxylic acid]	> 10000	> 10000
Cc1scc(C(=O)NC2CC3(C2)CC(C(=O)O)C3)c1Cc1ccc(-c2ccccc2)cc1 (stereo not drawn) [Example 20, 6-(4-([1,1′-biphenyl]-4-ylmethyl)-5-methylthiophene-3-carboxamido)spiro[3.3]heptane-2-carboxylic acid]	500 to 5000	< 500
Cc1sc(C)c(C(=O)NC2CC3(C2)CC(C(=O)O)C3)c1Cc1ccc(-c2cc(O)cc(F)c2)cc1 (stereo not drawn) [Example 71, 6-(4-((3′-fluoro-5′-hydroxy-[1,1′-biphenyl]-4-yl)methyl)-2,5-dimethylthiophene-3-carboxamido)spiro[3.3]heptane-2-carboxylic acid]	500 to 5000	< 500
O=C(NC1CC2(C1)CC(C(=O)O)C2)c1csc(-c2ccccc2)c1Cc1ccc(-c2ccccc2)cc1 (stereo not drawn) [Example 21, 6-(4-([1,1′-biphenyl]-4-ylmethyl)-5-phenylthiophene-3-carboxamido)spiro[3.3] heptane-2-carboxylic acid]	> 10000	> 10000
COc1cc(F)cc(-c2ccc(Cn3ccc4scc(C(=O)NC5CC6(C5)CC(C(=O)O)C6)c43)cc2)c1 (stereo not drawn) [Example 97, 6-4-((3′-fluoro-5′-methoxy[1,1′-biphenyl-4-yl)methyl)-4H-thieno[3,2-b]pyrrole-3-carboxamido)spiro[3.3]heptane-2-carboxylic acid]	< 500	< 500
Cc1cnn(-c2ccc(Cn3ccc4scc(C(=O)NC5CC6(C5)CC(C(=O)O)C6)c43)cc2)c1 (stereo not drawn) [Example 111, 6-(4-(4-(4-methyl-1H-pyrazol-1-yl)benzyl)-4H-thieno[3,2-b]pyrrole-3-carboxamido)spiro[3.3]heptane-2-carboxylic acid]	> 10000	< 500
COc1ccccc1-c1ccc(Cc2c(C)sc(C)c2C(=O)NC2CC3(C2)CC(C(=O)O)C3)cc1 (stereo not drawn) [Example 24, 6-(4-((2′-methoxy-[1,1′-biphenyl]-4-yl)methyl)-2,5-dimethylthiophene-3-carboxamido)spiro[3.3] heptane-2-carboxylic acid]	> 10000	500 to 5000
COc1cc(-c2ccc(Cc3c(C)sc(C)c3C(=O)NC3CC4(C3)CC(C(=O)O)C4)cc2)ccn1 (stereo not drawn) [Example 50, 6-(4-(4-(2-methoxypyridin-4-yl)benzyl)-2,5-dimethylthiophene-3-carboxamido)spiro[3.3]heptane-2-carboxylic acid]	> 10000	< 500
Cc1sc(C)c(C(=O)NC2CC3(C2)CC(C(=O)O)C3)c1Cc1ccc(-c2cc(F)cc(CN)c2)cc1 (stereo not drawn) [Example 64, 6-(4-((3′-(aminomethyl)-5′-fluoro-[1,1′-biphenyl]-4-yl)methyl)-2,5-dimethylthiophene-3-carboxamido)spiro[3.3]heptane-2-carboxylic acid]	> 10000	500 to 5000
O=C(N[C@H]1CC2(C1)C[C@H](C(=O)O)C2)c1csc2ccn(Cc3ccc(-c4ccccc4)cc3)c12 (single isomer, unassigned) [Example 79a]	500 to 5000	500 to 5000
COC(c1ccc(-c2ccccc2)cc1)c1c(C)sc(C)c1C(=O)NC1CC2(C1)CC(C(=O)O)C2 (stereo not drawn) [Example 12, 6-(4-([1,1′-biphenyl]-4-yl(methoxy)methyl)-2,5-dimethylthiophene-3-carboxamido)spiro[3.3]heptane-2-carboxylic acid]	> 10000	> 10000
